Paper PMC10683025, “Discovery of a Hydroxylamine-Based Brain-Penetrant EGFR Inhibitor for Metastatic Non-Small-Cell Lung Cancer” (Journal of Medicinal Chemistry, 2023)
“Also recorded” adds a separate entry of the source. Read-outs that look alike come from different tables or passages of the source.

Columns and labels:
[1] = biological target: T1, ABL1(F317L)-phosphorylated (Homo sapiens, UniProt P00519, F317L); experiment: KINOMEScan; format: binding; settings: read-out: Percent Control
T1 construct: purchased Eurofins DiscoverX
From the text: (§1) Percent control was mapped onto the kinome tree using TREEspot.

[2] = biological target: CYP2D6 (Homo sapiens, UniProt P10635); experiment: CYP2D6 time-dependent inhibition in human liver microsomes; settings: for Inhibition percentage(%) at Top conc. / IC50: liver microsomes; for IC50: read-out: CYP2D6 IC50
[3] = biological target: T2, YSK4 (Homo sapiens, UniProt Q56UN5); experiment: KINOMEScan; format: binding; settings: YSK4, 1 µM; read-out: Percent Control
T2 construct: purchased Eurofins DiscoverX (KINOMEScan service)

[4] = biological target: T3, CYP2C19 (Homo sapiens, UniProt P33261); experiment: CYP450 inhibition in human liver microsomes; format: in vitro ADME
T3 construct: tissue BD Gentest; host or cells: pooled human liver microsomes
Experimental: The activities tested were CYP1A2-mediated phenacetin O-demethylation, CYP2C19-mediated (S)-mephenyotin 4′-hydroxylation, CYP2C9-mediated diclofenac 4′-hydroxylation, CYP2D6-mediated dextromethorphan O-demethylation, and CYP3A4-mediated midazolam 1′-hydroxylation. […] The reactions were initiated by adding NADPH (1 mM final concentration) after a 5 min preincubation, and the assay was run in duplicate (n = 2). Samples were analyzed by ultra-performance liquid chromatography tandem mass spectrometry (UPLC-MS/MS).

[5] = biological target: T4, ASK1 (Homo sapiens, UniProt Q99683); experiment: KINOMEScan; format: binding; settings: ASK1, 1 µM; read-out: Percent Control
T4 construct: purchased Eurofins DiscoverX (KINOMEscan)

[6] = biological target: T5, BRAF (Homo sapiens, UniProt P15056); experiment: KINOMEScan; format: binding; settings: read-out: Percent Control
T5 construct: purchased Eurofins DiscoverX (KINOMEscan)
From the text: as §1

[7] = Metabolic stability in hepatocytes; format: in vitro ADME, cynomolgus monkey; settings: for Remaining Percentages: monkey hepatocytes
Experimental: Microsome stability was assessed in duplicate (n = 2) in the presence and absence of nicotinamide adenine dinucleotide phosphate (NADPH) with liver microsomes (0.5 mg/mL) from human (BD Gentest) and Sprague-Dawley rats (BD Gentest). Compounds were incubated in liver microsomes at 1 μM and samples (30 μL) were taken at 0.5, 15, 30, 45, and 60 min time points for analysis by LC-MS/MS. Hepatocyte stability was assessed in duplicate (n = 2) at a working cell density of 0.5 × 10^6 cells/mL with hepatocytes from human (BiolVT), Sprague-Dawley rat (BiolVT), cynomolgus monkey (RILD) or beagle dog (BiolVT). […] The in vitro half-life and intrinsic clearances were determined as previously described.[76]
(§2) In vitro half-life (in vitro t1/2) was determined from the slope value in [drawing 1] where k was determined by linear regression of the natural logarithm of the remaining percentage of the parent drug vs the incubation time curve.

[8] = biological target: T6, WEE2 (Homo sapiens, UniProt P0C1S8); experiment: KINOMEScan; format: binding; settings: WEE2, 1 µM; read-out: Percent Control
T6 construct: purchased Eurofins DiscoverX
From the text: as §1

[9] = biological target: T7, AKT1 (Homo sapiens, UniProt P31749); experiment: KINOMEScan; format: binding; settings: AKT1, 1 µM; read-out: Percent Control
T7 construct: purchased Eurofins DiscoverX (KINOMEscan)
From the text: as §1

[10] = Metabolic stability in hepatocytes; format: in vitro ADME, beagle dog; settings: for Remaining Percentages: dog hepatocytes
Experimental: Hepatocyte stability was assessed in duplicate (n = 2) at a working cell density of 0.5 × 10^6 cells/mL with hepatocytes from human (BiolVT), Sprague-Dawley rat (BiolVT), cynomolgus monkey (RILD) or beagle dog (BiolVT). […] The in vitro half-life and intrinsic clearances were determined as previously described.[76]
as §2

[11] = biological target: T8, ACVR2A (Homo sapiens, UniProt P27037); experiment: KINOMEScan; format: binding; settings: read-out: Percent Control
T8 construct: purchased Eurofins DiscoverX (KINOMEscan)
From the text: as §1

[12] = In vitro metabolite identification; format: in vitro ADME; settings: human hepatocytes, 10 μM
[13] = biological target: T9, EGFRwt (Homo sapiens, UniProt P00533); experiment: KINOMEScan; format: binding; settings: read-out: Percent Control
T9 construct: purchased Eurofins DiscoverX (contract assay)
From the text: as §1

[14] = biological target: T10, WNK3 (Homo sapiens, UniProt Q9BYP7); experiment: KINOMEScan; format: binding; settings: WNK3, 1 µM; read-out: Percent Control
T10 construct: purchased Eurofins DiscoverX
From the text: as §1

[15] = biological target: T11, ARK5 (Homo sapiens, UniProt O60285); experiment: KINOMEScan; format: binding; settings: ARK5, 1 µM; read-out: Percent Control
T11 construct: purchased Eurofins DiscoverX (KINOMEscan)
From the text: as §1

[16] = biological target: T12, BMPR1B (Homo sapiens, UniProt O00238); experiment: KINOMEScan; format: binding; settings: read-out: Percent Control
T12 construct: purchased Eurofins DiscoverX (KINOMEscan)
From the text: as §1

[17] = biological target: T13, WNK1 (Homo sapiens, UniProt Q9H4A3); experiment: KINOMEScan; format: binding; settings: WNK1, 1 µM; read-out: Percent Control
T13 construct: purchased Eurofins DiscoverX
From the text: as §1

[18] = biological target: T14, AURKC (Homo sapiens, UniProt Q9UQB9); experiment: KINOMEScan; format: binding; settings: read-out: Percent Control
T14 construct: purchased Eurofins DiscoverX (KINOMEscan)

[19] = biological target: T15, YANK2 (Homo sapiens, UniProt Q9NY57); experiment: KINOMEScan; format: binding; settings: YANK2, 1 µM; read-out: Percent Control
T15 construct: purchased Eurofins DiscoverX (KINOMEScan service)
From the text: as §1

[20] = biological target: T16, AAK1 (Homo sapiens, UniProt Q2M2I8); experiment: KINOMEScan; format: binding; settings: AAK1, 1 µM; read-out: Percent Control
T16 construct: purchased Eurofins DiscoverX
From the text: as §1

[21] = biological target: T17, BMPR2 (Homo sapiens, UniProt Q13873); experiment: KINOMEScan; format: binding; settings: BMPR2, 1 µM; read-out: Percent Control
T17 construct: purchased Eurofins DiscoverX (KINOMEscan)
From the text: as §1

[22] = biological target: T18, ZAP70 (Homo sapiens, UniProt P43403); experiment: KINOMEScan; format: binding; settings: ZAP70, 1 µM; read-out: Percent Control
T18 construct: purchased Eurofins DiscoverX (KINOMEScan service)
From the text: as §1

[23] = biological target: T19, BRSK2 (Homo sapiens, UniProt Q8IWQ3); experiment: KINOMEScan; format: binding; settings: BRSK2, 1 µM; read-out: Percent Control
T19 construct: purchased Eurofins DiscoverX (KINOMEscan)
From the text: as §1

[24] = biological target: T20, LYN (Homo sapiens, UniProt P07948); experiment: KINOMEScan; format: binding; settings: read-out: Percent Control
T20 construct: purchased Eurofins DiscoverX (contract assay)
From the text: as §1

[25] = biological target: T21, ADCK3 (Homo sapiens, UniProt Q8NI60); experiment: KINOMEScan; format: binding; settings: ADCK3, 1 µM; read-out: Percent Control
T21 construct: purchased Eurofins DiscoverX (KINOMEscan)
From the text: as §1

[26] = Brain tissue binding by equilibrium dialysis; format: in vitro ADME, mouse
Experimental: Plasma protein binding and brain tissue binding were determined by Pharmaron, Inc. using the equilibrium dialysis method. […] Following incubation, the samples were analyzed by LC-MS/MS and the concentrations of the compounds were determined in the buffer and plasma solution chambers.

[27] = biological target: T22, ABL2 (Homo sapiens, UniProt P42684); experiment: KINOMEScan; format: binding; settings: ABL2, 1 µM; read-out: Percent Control
T22 construct: purchased Eurofins DiscoverX
From the text: as §1

[28] = biological target: T23, ABL1(F317I)-phosphorylated (Homo sapiens, UniProt P00519, F317I); experiment: KINOMEScan; format: binding; settings: read-out: Percent Control
T23 construct: purchased Eurofins DiscoverX
From the text: as §1

[29] = biological target: T24, ALK (Homo sapiens, UniProt Q9UM73); experiment: KINOMEScan; format: binding; settings: read-out: Percent Control
T24 construct: purchased Eurofins DiscoverX (KINOMEscan)
From the text: as §1

[30] = biological target: T25, ABL1(T315I)-nonphosphorylated (Homo sapiens, UniProt P00519, T315I); experiment: KINOMEScan; format: binding; settings: read-out: Percent Control
T25 construct: purchased Eurofins DiscoverX
From the text: as §1

[31] = biological target: T26, BMPR1A (Homo sapiens, UniProt P36894); experiment: KINOMEScan; format: binding; settings: read-out: Percent Control
T26 construct: purchased Eurofins DiscoverX (KINOMEscan)
From the text: as §1

[32] = tested on: panel of 468 kinases; experiment: KINOMEScan selectivity scores
From the text: as §1

[33] = CD-1, mouse, mouse brain homogenate

Sequence of CYP2D6 (P10635 whole entry): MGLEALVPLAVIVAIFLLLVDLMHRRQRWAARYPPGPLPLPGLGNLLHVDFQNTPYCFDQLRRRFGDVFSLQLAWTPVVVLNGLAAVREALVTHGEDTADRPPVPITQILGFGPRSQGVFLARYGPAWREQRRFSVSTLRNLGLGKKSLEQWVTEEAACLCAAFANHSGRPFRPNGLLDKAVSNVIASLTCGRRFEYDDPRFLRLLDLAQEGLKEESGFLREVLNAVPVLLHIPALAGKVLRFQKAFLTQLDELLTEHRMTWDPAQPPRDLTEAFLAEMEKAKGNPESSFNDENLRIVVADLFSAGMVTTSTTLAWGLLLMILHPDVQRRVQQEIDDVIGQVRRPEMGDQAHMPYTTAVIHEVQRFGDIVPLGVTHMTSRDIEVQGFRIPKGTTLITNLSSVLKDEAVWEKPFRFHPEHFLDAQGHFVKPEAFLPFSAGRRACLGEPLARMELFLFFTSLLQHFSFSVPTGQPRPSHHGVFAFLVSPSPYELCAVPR
T11 sequence (O60285 whole entry): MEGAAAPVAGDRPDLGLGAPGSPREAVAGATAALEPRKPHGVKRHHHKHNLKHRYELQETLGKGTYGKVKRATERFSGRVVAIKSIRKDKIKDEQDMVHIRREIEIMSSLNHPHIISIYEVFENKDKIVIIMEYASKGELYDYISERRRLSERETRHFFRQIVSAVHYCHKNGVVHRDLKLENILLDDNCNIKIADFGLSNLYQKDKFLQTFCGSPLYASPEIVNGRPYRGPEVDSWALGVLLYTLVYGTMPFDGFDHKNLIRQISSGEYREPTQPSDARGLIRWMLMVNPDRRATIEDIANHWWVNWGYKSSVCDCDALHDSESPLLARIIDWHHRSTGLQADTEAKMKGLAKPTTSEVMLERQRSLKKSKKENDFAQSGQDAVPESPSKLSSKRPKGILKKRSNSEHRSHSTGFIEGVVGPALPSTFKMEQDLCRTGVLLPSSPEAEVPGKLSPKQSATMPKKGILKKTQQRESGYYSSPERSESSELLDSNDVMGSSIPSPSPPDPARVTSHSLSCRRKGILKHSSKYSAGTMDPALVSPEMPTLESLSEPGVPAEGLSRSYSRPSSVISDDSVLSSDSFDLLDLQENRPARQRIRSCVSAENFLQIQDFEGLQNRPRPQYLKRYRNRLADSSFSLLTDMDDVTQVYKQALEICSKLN
T22 sequence (P42684 whole entry): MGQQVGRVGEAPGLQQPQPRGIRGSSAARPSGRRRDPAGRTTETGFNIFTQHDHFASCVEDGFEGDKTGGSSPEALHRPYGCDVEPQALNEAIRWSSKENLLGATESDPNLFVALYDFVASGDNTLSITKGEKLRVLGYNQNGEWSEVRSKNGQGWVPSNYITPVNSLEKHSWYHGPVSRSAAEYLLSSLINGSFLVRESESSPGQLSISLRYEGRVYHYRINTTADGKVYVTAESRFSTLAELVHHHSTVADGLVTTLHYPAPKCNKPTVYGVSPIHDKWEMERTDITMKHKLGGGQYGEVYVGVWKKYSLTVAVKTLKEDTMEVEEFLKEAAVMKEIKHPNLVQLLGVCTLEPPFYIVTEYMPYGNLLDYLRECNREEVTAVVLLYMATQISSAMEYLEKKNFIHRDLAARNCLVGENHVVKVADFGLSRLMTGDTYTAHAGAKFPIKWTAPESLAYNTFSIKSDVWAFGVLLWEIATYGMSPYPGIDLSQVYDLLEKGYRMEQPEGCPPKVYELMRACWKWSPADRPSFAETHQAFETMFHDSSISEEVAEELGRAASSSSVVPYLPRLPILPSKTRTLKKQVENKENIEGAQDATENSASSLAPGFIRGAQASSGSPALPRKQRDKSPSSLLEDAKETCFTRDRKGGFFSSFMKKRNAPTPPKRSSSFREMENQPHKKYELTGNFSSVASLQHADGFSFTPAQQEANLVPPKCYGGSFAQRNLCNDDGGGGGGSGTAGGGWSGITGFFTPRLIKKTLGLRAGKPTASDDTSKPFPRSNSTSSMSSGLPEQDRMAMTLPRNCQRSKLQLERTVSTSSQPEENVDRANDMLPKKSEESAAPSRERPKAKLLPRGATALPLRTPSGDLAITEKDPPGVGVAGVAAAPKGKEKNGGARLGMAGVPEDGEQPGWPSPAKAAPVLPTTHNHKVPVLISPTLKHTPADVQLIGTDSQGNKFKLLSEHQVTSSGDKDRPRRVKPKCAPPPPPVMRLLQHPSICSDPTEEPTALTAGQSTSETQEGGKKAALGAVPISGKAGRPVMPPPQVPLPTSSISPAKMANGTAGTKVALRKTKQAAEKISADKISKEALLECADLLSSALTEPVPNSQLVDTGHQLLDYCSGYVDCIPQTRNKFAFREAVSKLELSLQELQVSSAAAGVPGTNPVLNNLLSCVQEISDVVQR
T16 sequence (Q2M2I8 whole entry): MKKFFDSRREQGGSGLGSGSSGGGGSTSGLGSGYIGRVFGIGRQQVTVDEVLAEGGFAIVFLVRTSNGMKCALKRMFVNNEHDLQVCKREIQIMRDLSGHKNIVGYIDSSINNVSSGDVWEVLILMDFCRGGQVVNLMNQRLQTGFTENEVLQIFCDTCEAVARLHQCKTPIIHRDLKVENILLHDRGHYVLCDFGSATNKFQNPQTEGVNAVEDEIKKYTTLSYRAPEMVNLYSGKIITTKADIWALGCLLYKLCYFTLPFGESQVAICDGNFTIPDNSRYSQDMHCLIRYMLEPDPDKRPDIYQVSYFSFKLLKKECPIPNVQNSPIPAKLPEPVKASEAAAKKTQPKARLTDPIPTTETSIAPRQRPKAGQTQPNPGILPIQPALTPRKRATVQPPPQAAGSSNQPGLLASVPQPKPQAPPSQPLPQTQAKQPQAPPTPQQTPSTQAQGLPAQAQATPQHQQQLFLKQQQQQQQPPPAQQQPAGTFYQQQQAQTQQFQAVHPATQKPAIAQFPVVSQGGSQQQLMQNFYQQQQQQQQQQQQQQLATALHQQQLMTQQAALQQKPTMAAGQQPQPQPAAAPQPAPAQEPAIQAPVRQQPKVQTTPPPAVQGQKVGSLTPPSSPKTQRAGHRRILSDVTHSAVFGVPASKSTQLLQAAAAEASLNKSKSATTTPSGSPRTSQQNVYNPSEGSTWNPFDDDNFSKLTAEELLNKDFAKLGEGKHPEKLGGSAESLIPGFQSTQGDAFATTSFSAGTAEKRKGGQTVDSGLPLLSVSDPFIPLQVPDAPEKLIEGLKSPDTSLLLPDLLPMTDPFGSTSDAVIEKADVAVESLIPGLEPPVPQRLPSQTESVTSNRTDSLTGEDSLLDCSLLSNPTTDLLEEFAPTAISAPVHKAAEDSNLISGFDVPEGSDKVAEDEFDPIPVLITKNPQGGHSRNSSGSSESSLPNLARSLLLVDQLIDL
T10 sequence (Q9BYP7 whole entry): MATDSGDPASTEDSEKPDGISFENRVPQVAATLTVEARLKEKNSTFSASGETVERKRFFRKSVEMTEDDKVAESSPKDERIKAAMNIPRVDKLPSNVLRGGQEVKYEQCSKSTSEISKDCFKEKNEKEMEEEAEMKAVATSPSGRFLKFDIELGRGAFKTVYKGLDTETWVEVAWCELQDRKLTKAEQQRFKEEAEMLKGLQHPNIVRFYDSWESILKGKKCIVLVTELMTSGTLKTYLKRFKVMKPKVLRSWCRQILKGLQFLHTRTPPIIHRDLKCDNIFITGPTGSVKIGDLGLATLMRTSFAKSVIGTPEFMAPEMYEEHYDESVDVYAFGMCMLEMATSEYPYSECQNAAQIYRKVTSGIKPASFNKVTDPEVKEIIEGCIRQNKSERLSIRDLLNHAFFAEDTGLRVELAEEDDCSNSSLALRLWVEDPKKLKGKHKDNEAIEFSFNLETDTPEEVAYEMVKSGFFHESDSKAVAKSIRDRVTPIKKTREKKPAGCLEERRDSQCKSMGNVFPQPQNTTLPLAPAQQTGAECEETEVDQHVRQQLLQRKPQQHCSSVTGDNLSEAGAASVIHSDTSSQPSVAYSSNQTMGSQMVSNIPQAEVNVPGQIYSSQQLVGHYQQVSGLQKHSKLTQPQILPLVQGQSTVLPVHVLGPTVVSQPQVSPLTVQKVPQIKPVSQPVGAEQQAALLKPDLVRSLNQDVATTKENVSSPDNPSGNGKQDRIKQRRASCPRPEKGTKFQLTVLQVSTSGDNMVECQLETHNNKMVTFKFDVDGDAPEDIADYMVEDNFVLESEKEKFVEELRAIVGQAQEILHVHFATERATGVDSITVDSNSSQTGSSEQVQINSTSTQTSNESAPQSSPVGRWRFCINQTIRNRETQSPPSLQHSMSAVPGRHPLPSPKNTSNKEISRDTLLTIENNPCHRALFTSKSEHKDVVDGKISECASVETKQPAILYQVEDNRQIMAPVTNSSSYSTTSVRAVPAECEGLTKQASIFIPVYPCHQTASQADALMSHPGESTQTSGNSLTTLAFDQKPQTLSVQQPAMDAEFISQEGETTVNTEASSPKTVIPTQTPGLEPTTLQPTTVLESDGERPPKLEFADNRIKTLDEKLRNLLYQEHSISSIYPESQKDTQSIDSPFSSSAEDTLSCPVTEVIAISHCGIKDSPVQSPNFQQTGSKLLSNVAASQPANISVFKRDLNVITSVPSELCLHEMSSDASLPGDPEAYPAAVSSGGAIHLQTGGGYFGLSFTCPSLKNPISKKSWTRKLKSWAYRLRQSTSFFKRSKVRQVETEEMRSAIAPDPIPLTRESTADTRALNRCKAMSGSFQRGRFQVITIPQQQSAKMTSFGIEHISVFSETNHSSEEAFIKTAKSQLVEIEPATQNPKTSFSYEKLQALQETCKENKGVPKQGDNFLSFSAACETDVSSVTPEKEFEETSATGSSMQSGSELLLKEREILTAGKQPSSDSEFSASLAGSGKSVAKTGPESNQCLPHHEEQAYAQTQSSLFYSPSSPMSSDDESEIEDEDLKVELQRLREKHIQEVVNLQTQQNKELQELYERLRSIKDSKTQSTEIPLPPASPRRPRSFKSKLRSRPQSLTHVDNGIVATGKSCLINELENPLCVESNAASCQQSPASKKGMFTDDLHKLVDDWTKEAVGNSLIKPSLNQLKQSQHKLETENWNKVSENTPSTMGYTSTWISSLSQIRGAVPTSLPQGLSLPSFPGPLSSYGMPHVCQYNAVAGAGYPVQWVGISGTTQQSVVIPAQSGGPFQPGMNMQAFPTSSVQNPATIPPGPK

For `COc1cc2ncnc(Nc3cccc(Cl)c3F)c2cc1OCCON1CCN(C)CC1` [Compound 9, N-(3-Chloro-2-fluorophenyl)-7-methoxy-6-(2-((4-methylpiperazin-1-yl)oxy)ethoxy)quinazolin-4-amine], the remaining binding at 1 µM [1] was 4%, the “CYP 2D6 TDI” value ([2]; IC50-shift, human liver microsomes and primary human hepatocytes) was “Negative; also recorded: not to be time-dependent” and the “Inhibition percentage(%) at Top conc.” value ([2]; 0 min) was 78.15%. For the same compound, the “Inhibition percentage(%) at Top conc.” value ([2]; 30 min with NADPH) was 74.73%, the “Inhibition percentage(%) at Top conc.” value ([2]; 30 min without NADPH) was 78.78% and the IC50 ([2]; 30 min with NADPH) was 1820 nM. It also gave an IC50 ([2]; 30 min without NADPH) of 1160 nM, an IC50 ([2]; pre-incubation 0 min) of 1050 nM and a remaining binding at 1 µM [3] of 46%. For the same compound, the IC50 [4] was over 30000 nM, the remaining binding at 1 µM [5] was 100% and the remaining binding at 1 µM [6] was 89%. For the same compound, the hepatocyte CLint at 2 h, 1 µM ([7]; cynomolgus monkey, hepatocytes) was 29 µL/min/1e6 cells, the “Remaining Percentages” value ([7]; 15 min) was 49.08% and the “Remaining Percentages” value ([7]; 30 min) was 30.35%. For the same compound, the “Remaining Percentages” value ([7]; 60 min) was 13.17%, the “Remaining Percentages” value ([7]; 90 min) was 4.27% and the “Remaining Percentages” value ([7]; 120 min) was “BLOD”. The remaining binding at 1 µM [8] was 100%, the remaining binding at 1 µM [9] was 100% and the hepatocyte CLint at 2 h, 1 µM ([10]; beagle, dog, hepatocytes) was 13 µL/min/1e6 cells. For the same compound, the “Remaining Percentages” value ([10]; 15 min) was 88.01%, the “Remaining Percentages” value ([10]; 30 min) was 79.61% and the “Remaining Percentages” value ([10]; 60 min) was 68.74%. The “Remaining Percentages” value ([10]; 90 min) was 60.01%, the “Remaining Percentages” value ([10]; 120 min) was 41.31% and the remaining binding at 1 µM [11] was 100%. The “share of parent/metabolite after incubation of 9” value [12] was 14.20%, the remaining binding at 1 µM [13] was 0.3% and the remaining binding at 1 µM [14] was 94%. The remaining binding at 1 µM [15] was 100%, the remaining binding at 1 µM [16] was 79% and the remaining binding at 1 µM [17] was 100%. The remaining binding at 1 µM [18] was 82%, the remaining binding at 1 µM [19] was 93% and the remaining binding at 1 µM [20] was 92%. For the same compound, the remaining binding at 1 µM [21] was 99%, the remaining binding at 1 µM [22] was 98% and the remaining binding at 1 µM [23] was 74%. For the same compound, the remaining binding at 1 µM [24] was 7.4%, the remaining binding at 1 µM [25] was 90% and the fraction unbound at 6 h, 5 μM ([26]; CD-1, mouse, brain homogenate, read-out: fu,brain% / %Unboundbrain) was 0.0405. For the same compound, the recovery at 6 h, 5 μM [26, 33] was 93%, the remaining at 6 h, 5 μM [26, 33] was 92.6% and the fraction unbound at 6 h, 5 μM ([26]; CD-1, mouse, mouse brain homogenate, read-out: %Unboundbrain (converted)) was 0.0405. It also gave a fraction unbound at 6 h, 5 µM ([26]; mouse, brain homogenate, read-out: fu,brain% / %Unboundbrain) of 0.041, a remaining binding at 1 µM [27] of 64% and a remaining binding at 1 µM [28] of 48%. It also gave a remaining binding at 1 µM [29] of 89%, a remaining binding at 1 µM [30] of 68% and a remaining binding at 1 µM [31] of 90%. For the same compound, the “Number of Hits S(1)” value ([32]; percent control < 1, of 403) was 2, the “Number of Hits S(10)” value ([32]; percent control < 10, of 403) was 6 and the “Number of Hits S(35)” value ([32]; percent control < 35, of 403) was 12.
